Reference: publication PMC11285948, “The effects of CYP2B6 inactivators on the metabolism of ciprofol” (PLOS ONE, 2024)
Values joined by “and” are separate entries in the source; they are usually repeats but may differ in a detail not shown here. Identical values can stand only once.

Experiments:
[1] = test system: human liver microsomes (HLMs); assay: Ciprofol metabolism in HLM incubation system (incubation time, protein concentration, enzyme kinetics); type: in vitro ADME; settings: HLMs; for ciprofol concentration in incubation system (Liver microsomal protein concentration): ciprofol 40 μg·mL^-1, 60 min, C1-C3 and Mean
Procedure: The volume of the incubation system was 200 μL and included 2 μL of substrate (ciprofol), 8 μL of rat liver microsomes (RLMs) or 6 μL of human liver microsomes (HLMs), 12 μL of NADPH generation system of solution (solution A 10 μL, solution B 2 μL), and the remaining volume was PBS. The incubation was performed in a water bath at a constant temperature of 37°C, and each sample was incubated three times in parallel.
The incubation system was removed from the water bath, and the reaction was terminated immediately by adding 800 μL of reaction termination solution (acetonitrile solution containing 5 μg·mL^-1 D6-ciprofol at 4°C). The mixture was vortexed for 2 min and centrifuged for 15 min, after which the supernatant was transferred to an autosampler vial for HPLC-MS/MS detection.
The concentrations of ciprofol and liver microsomal proteins in the RLM incubation system were set at 25 μg·mL^-1 and 0.8 mg·mL^-1, respectively, whereas those in the HLM incubation system were set at 40 μg·mL^-1 and 0.6 mg·mL^-1, respectively. Samples were obtained and assayed after 0, 10, 20, 30, 40, 60, 80, 100 and 120 min of incubation, and the optimum incubation time was determined according to the decreasing trend in ciprofol concentration.
The ciprofol concentrations in the RLM and HLM incubation systems were set at 25 and 40 μg·mL^-1, respectively. The liver microsomal protein concentrations were 0, 0.1, 0.2, 0.4, 0.6, 0.8 and 1.0 mg·mL^-1. The optimal protein concentration in the incubation system was determined based on the reduction of ciprofol (ΔC) after 40 min of incubation in RLMs and 60 min in HLMs.
The liver microsomal protein concentrations in the RLM incubation system and the HLM incubation system were 0.8 mg·mL^-1 and 0.6 mg·mL^-1, and the cells were incubated for 40 min and 60 min, respectively. The ciprofol concentrations in the incubation system were set at 4, 8, 16, 32, 48 and 80 μg·mL^-1, and the kinetic parameters of ciprofol metabolism were investigated based on ΔC values at different initial ciprofol concentrations (C0).
The substrate elimination method was employed in this study, and GraphPad Prism 8.0.2 software was used for statistical processing, including determination of the kinetic parameters of ciprofol metabolism and the IC50 values of psoralen and clopidogrel for ciprofol metabolism. The maximum velocity (Vmax), Michaelis constant (Km) and intrinsic clearance (CLint) were calculated using the […]: V=Vmax×[S]/Km+[S] CLint=Vmax/Km

[2] = Stability of ciprofol QC samples in rat plasma; type: physicochemical; parameters: calculated concentration, mean: unit: ng/mL; settings: for ciprofol found after storage, Autosampler / ciprofol found after storage, Room Temperature / ciprofol found after storage, Freeze–Thaw / ciprofol found after storage, Long-Term Storage / Stability: mean calculated concentration / Stability: calculated concentration: rat plasma; for ciprofol found after storage, Autosampler / ciprofol found after storage, Room Temperature / ciprofol found after storage, Freeze–Thaw / ciprofol found after storage, Long-Term Storage: n = 5; for Stability: calculated concentration: single replicates
Procedure: 5 μL of IS solution (2.5 μg·mL^-1 D6-ciprofol) was added to 100 μL of plasma and mixed. Then, 300 μL of acetonitrile was added. The mixture was vortexed for 2 min and centrifuged for 10 min, and the supernatant was transferred to an autosampler vial for HPLC-MS/MS detection.
To investigate the stability of ciprofol under a variety of conditions, three groups of liver microsome QC sample solutions were prepared, and one group was immediately processed and analysed as described in Section 2.4.2. Another group was stored at room temperature for 8 hours before treatment and assessment. The other group was treated and placed in the autosampler (4°C) for 24 h and subsequently analysed. In addition, simulated plasma QC samples were prepared in five groups: one group was processed and measured immediately as described in Section 2.4.3, and another group was placed in the autosampler for 24 h after treatment. The other three groups were placed at room temperature for 8 h, stored at -40°C for 30 d, frozen and thawed three times, respectively, and then processed and detected as described in Section 2.4.3. All the above samples were tested in parallel in five batches.

[3] = Autosampler for 24 h, QC level H
[4] = Autosampler for 24 h, QC level L
[5] = Autosampler for 24 h, QC level M
[6] = Feeeze - Thaw for three times, QC level H
[7] = Feeeze - Thaw for three times, QC level L
[8] = Feeeze - Thaw for three times, QC level M
[9] = Room - Temperature for 8 h, QC level H
[10] = Room - Temperature for 8 h, QC level L
[11] = Room - Temperature for 8 h, QC level M

With `CC(C)c1cccc([C@H](C)C2CC2)c1O` [ciprofol] the “ciprofol concentration in incubation system (Liver microsomal protein concentration)” value (“ciprofol concentration” for short) ([1]; Cprotein 0.1 mg/mL) was 35.11 µg/mL and 36.09 µg/mL and 35.34 µg/mL and 35.51 µg/mL, the “ciprofol concentration” value ([1]; Cprotein 0.2 mg/mL) was 30.78 µg/mL and 30.52 µg/mL and 29.4 µg/mL and 30.23 µg/mL and the “ciprofol concentration” value ([1]; Cprotein 0.4 mg/mL) was 24.5 µg/mL and 24.31 µg/mL and 22.53 µg/mL and 23.78 µg/mL. The “ciprofol concentration” value ([1]; Cprotein 0.6 mg/mL) was 20.49 µg/mL and 20.86 µg/mL and 19.64 µg/mL and 20.33 µg/mL, the “ciprofol concentration” value ([1]; Cprotein 0.8 mg/mL) was 19.89 µg/mL and 20.13 µg/mL and 19.02 µg/mL and 19.68 µg/mL and the “ciprofol concentration” value ([1]; Cprotein 1 mg/mL) was 19.11 µg/mL and 19.68 µg/mL and 20.54 µg/mL and 19.78 µg/mL. The CLint of ciprofol ([1]; CLint=Vmax/Km) was 1.06 mL·min^-1·mg protein^-1, the “calculated concentration, mean” value ([2]; QC sample level H, mean of H1-H5) was 1597.51 and the “ciprofol found after storage, Autosampler” value (from here on “ciprofol found … Autosampler”) ([2]; QC 30 ng·mL^-1, autosampler for 24 h after treatment) was 32.80 ± 1.93 ng/mL. For the same compound, the “ciprofol found after storage, Room Temperature” value ([2]; QC 30 ng·mL^-1, room temperature for 8 h) was 30.50 ± 2.27 ng/mL, the “ciprofol found after storage, Freeze–Thaw” value (shortened to “ciprofol found … Freeze–Thaw”) ([2]; QC 30 ng·mL^-1, three freeze–thaw cycles) was 33.49 ± 2.03 ng/mL and the “ciprofol found after storage, Long-Term Storage” value ([2]; QC 30 ng·mL^-1, −40°C for 30 days) was 32.70 ± 2.85 ng/mL. For the same compound, the “ciprofol found … Autosampler” value ([2]; QC 250 ng·mL^-1, autosampler for 24 h after treatment) was 250.78 ± 12.31 ng/mL, the “ciprofol found after storage, Room Temperature” value ([2]; QC 250 ng·mL^-1, room temperature for 8 h) was 227.31 ± 5.60 ng/mL and the “ciprofol found … Freeze–Thaw” value ([2]; QC 250 ng·mL^-1, three freeze–thaw cycles) was 245.21 ± 3.43 ng/mL. For the same compound, the “ciprofol found after storage, Long-Term Storage” value ([2]; QC 250 ng·mL^-1, −40°C for 30 days) was 242.73 ± 9.08 ng/mL, the “ciprofol found … Autosampler” value ([2]; QC 1600 ng·mL^-1, autosampler for 24 h after treatment) was 1576.27 ± 41.67 ng/mL and the “ciprofol found after storage, Room Temperature” value ([2]; QC 1600 ng·mL^-1, room temperature for 8 h) was 1464.24 ± 98.79 ng/mL. The “ciprofol found … Freeze–Thaw” value ([2]; QC 1600 ng·mL^-1, three freeze–thaw cycles) was 1604.92 ± 96.88 ng/mL, the “ciprofol found after storage, Long-Term Storage” value ([2]; QC 1600 ng·mL^-1, −40°C for 30 days) was 1597.51 ± 83.93 ng/mL and the “Stability: mean calculated concentration” value ([2]; -40℃ for 30 d, QC level L) was 31.38 ng/mL. The “Stability: calculated concentration” value ([2]; -40℃ for 30 d, QC level L) was 34.12 ng/mL and 32.66 ng/mL and 29.27 ng/mL and 33.13 ng/mL and 27.74 ng/mL, the “Stability: mean calculated concentration” value ([2]; -40℃ for 30 d, QC level M) was 242.73 ng/mL and the “Stability: calculated concentration” value ([2]; -40℃ for 30 d, QC level M) was 234.27 ng/mL and 256.93 ng/mL and 236.05 ng/mL and 240.78 ng/mL. The “Stability: mean calculated concentration” value [2, 3] was 1576.27 ng/mL, the “Stability: calculated concentration” value [2, 3] was 1522.23 ng/mL and 1628.44 ng/mL and 1549.96 ng/mL and 1580.01 ng/mL and 1600.71 ng/mL and the “Stability: mean calculated concentration” value [2, 4] was 31.48 ng/mL. The “Stability: calculated concentration” value [2, 4] was 32.65 ng/mL and 31.94 ng/mL and 29.92 ng/mL and 33.65 ng/mL and 29.23 ng/mL, the “Stability: mean calculated concentration” value [2, 5] was 250.78 ng/mL and the “Stability: calculated concentration” value [2, 5] was 249.99 ng/mL and 245.49 ng/mL and 259.61 ng/mL and 233.66 ng/mL and 265.15 ng/mL. The “Stability: mean calculated concentration” value [2, 6] was 1604.92 ng/mL, the “Stability: calculated concentration” value [2, 6] was 1500.04 ng/mL and 1659.28 ng/mL and 1498.65 ng/mL and 1682.66 ng/mL and 1683.96 ng/mL and the “Stability: mean calculated concentration” value [2, 7] was 32.14 ng/mL. For the same compound, the “Stability: calculated concentration” value [2, 7] was 33.17 ng/mL and 29.49 ng/mL and 30.69 ng/mL and 33.26 ng/mL and 34.09 ng/mL, the “Stability: mean calculated concentration” value [2, 8] was 245.21 ng/mL and the “Stability: calculated concentration” value [2, 8] was 248.65 ng/mL and 241.72 ng/mL and 249.13 ng/mL and 243.02 ng/mL and 243.50 ng/mL. The “Stability: mean calculated concentration” value [2, 9] was 1464.24 ng/mL, the “Stability: calculated concentration” value [2, 9] was 1500.17 ng/mL and 1462.05 ng/mL and 1317.85 ng/mL and 1591.16 ng/mL and 1449.95 ng/mL and the “Stability: mean calculated concentration” value [2, 10] was 29.27 ng/mL. The “Stability: calculated concentration” value [2, 10] was 29.52 ng/mL and 32.22 ng/mL and 27.05 ng/mL and 30.35 ng/mL and 27.24 ng/mL, the “Stability: mean calculated concentration” value [2, 11] was 227.31 ng/mL and the “Stability: calculated concentration” value [2, 11] was 220.38 ng/mL and 226.72 ng/mL and 228.84 ng/mL and 235.64 ng/mL and 224.99 ng/mL.
